Results: patent US20260001914A1, “MACROCYCLIC PEPTIDES TARGETING KRAS” (Merck Sharp & Dohme LLC, priority 2022, published 2026)
*1 amine or outer side, *2 acyl side, *3 side chain or, on linkers, in order; H or OH if unused. Where a SMILES comes first, the peptide text is derived from it. Bridges are numbered along the chain shown (N, C = ends). [ ]: non-standard residue; d: D form. Phe(4-guanidino) = N=C(N)Nc1ccc(C[C@H](N)C(=O)O)cc1; X22 = CNC(=N)N(C)CCC[C@@H](C(=O)[*:2])N(C)[*:1]; Ala(pyrimidin-5-yl) = N[C@@H](Cc1cncnc1)C(=O)O; NMe3Pal(6-Me) = CN[C@@H](Cc1ccc(C)nc1)C(=O)O; NMe3Pal(5-F) = CN[C@@H](Cc1cncc(F)c1)C(=O)O; NMePhe(3-Me) = CN[C@@H](Cc1cccc(C)c1)C(=O)O; X11 = CC(C)(F)CC[C@H](N[*:1])C(=O)[*:2]; 1Nal = N[C@@H](Cc1cccc2ccccc12)C(=O)O; NHCH2CH2SCH2CO = O=C(CSCCN[*:1])[*:2]; Phe(2-F) = N[C@@H](Cc1ccccc1F)C(=O)O; X70 = O=C(C1CC2(C1)CN([*:1])C2)[*:2]; NMe3Pal = CN[C@@H](Cc1cccnc1)C(=O)O; X1 = O=C(C12CC(CN[*:1])(C1)C2)[*:2]; X12 = CC(=O)NCCCN(CC(=O)[*:2])[*:1]; X17 = O=C([C@H](CCCCF)N[*:1])[*:2]; Ala(cPr) = N[C@@H](CC1CC1)C(=O)O; NMeF = CN[C@@H](Cc1ccccc1)C(=O)O; PhLac = O=C(O)[C@@H](O)Cc1ccccc1; 3Pal = N[C@@H](Cc1cccnc1)C(=O)O; d3Pal = N[C@H](Cc1cccnc1)C(=O)O; 3Thi = N[C@@H](Cc1ccsc1)C(=O)O; d(αMeC) = C[C@@](N)(CS)C(=O)O; Ahp(2) = CCCCC[C@H](N)C(=O)O; Ala(CN) = N#CC[C@H](N)C(=O)O; Cba = N[C@@H](CC1CCC1)C(=O)O; hLeu = CC(C)CC[C@H](N)C(=O)O; hSer = N[C@@H](CCO)C(=O)O; αMeC = C[C@](N)(CS)C(=O)O; NMeA = CN[C@@H](C)C(=O)O; Nle = CCCC[C@H](N)C(=O)O; Pra = C#CC[C@H](N)C(=O)O; AEEA = NCCOCCOCC(=O)O

Biological target: KRAS-G12D protein (Homo sapiens, UniProt P01116, G12D)
Assay: SOS-mediated nucleotide exchange assay (BODIPY-GDP / Tb-streptavidin TR-FRET)
Type: biochemical

Chain of KRAS-G12D protein (P01116 1-188 isoform P01116-2 G12D): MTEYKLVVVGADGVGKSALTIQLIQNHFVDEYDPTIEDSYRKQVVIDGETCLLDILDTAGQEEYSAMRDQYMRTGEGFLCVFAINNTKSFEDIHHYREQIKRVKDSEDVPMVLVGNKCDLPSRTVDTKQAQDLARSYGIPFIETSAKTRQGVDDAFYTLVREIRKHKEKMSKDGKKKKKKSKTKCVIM

Compound	EC50
CCCCC[C@@H]1NC(=O)[C@H](Cc2ccc(O)cc2)NC(=O)[C@H](CC(C)C)NC(=O)[C@H](Cc2ccc(O)cc2)NC(=O)[C@H](CCCNC(=N)N)NC(=O)[C@H](Cc2ccccc2)NC(=O)CSC[C@@H](C(=O)NCCOCCOCC(=O)NCCOCCOCC(N)=O)NC(=O)[C@H](Cc2ccccc2)N(C)C1=O [compound 58, cyclo(F-R-Y-L-Y-Ahp-NMeF-C4-ClAc)] ({CH2CO}-FRYLY[Ahp(2)][NMeF]C[AEEA][AEEA]-NH2; thioether N-8)	436 nM
CCCC[C@@H]1NC(=O)[C@H](Cc2ccccc2F)NC(=O)C(CC2CC(F)(F)C2)NC(=O)[C@H](Cc2cncnc2)NC(=O)[C@H](C)N(C)C(=O)[C@H](Cc2ccccc2)OC(=O)C23CC(CNC(=O)[C@H](Cc4cccnc4)N(C)C1=O)(C2)C3 (single isomer, unassigned) [compound 123, cyclo(FLac-NMeA-PyrimAla-rF2Cba-Phe2F-Nle-NMe3Pal-amBCP)]	8190 nM
CCCC[C@@H]1NC(=O)[C@H](Cc2ccc(O)cc2)NC(=O)[C@H](CC(C)C)NC(=O)[C@H](Cc2ccc(O)cc2)NC(=O)[C@H](CCCNC(=N)N)NC(=O)[C@H](Cc2ccccc2)NC(=O)CSCCNC(=O)[C@H](Cc2ccccc2)N(C)C1=O [compound 69, cyclo(F-R-Y-L-Y-Nle-NMeF-Cysteamine-ClAc)]	1470 nM
CCCC[C@@H]1NC(=O)[C@H](Cc2ccsc2)NC(=O)[C@H](C)N(C)C(=O)[C@H](Cc2ccccc2)OC(=O)C23CC(CNC(=O)[C@H](Cc4ccccc4)N(C)C(=O)[C@H](CCCC)NC(=O)[C@H](Cc4ccccc4F)NC1=O)(C2)C3 [compound 318, cyclo(FLac-NMeA-3Thi-Nle-Phe2F-Nle-NMeF-amBCP)] (cyclo([3Thi][Nle][Phe(2-F)][Nle][NMeF][X1][PhLac][NMeA]))	527 nM
CCCC[C@@H]1NC(=O)[C@H](Cc2ccc(O)cc2)NC(=O)[C@H](CCOC)NC(=O)[C@H](Cc2ccc(O)cc2)NC(=O)[C@H](CCCNC(=N)N)NC(=O)[C@H](Cc2ccccc2)NC(=O)CSCCNC(=O)[C@H](Cc2ccccc2)N(C)C1=O [compound 77, cyclo(F-R-Y-hSOMe-Y-Nle-NMeF-Cysteamine-ClAc)] (cyclo(FRY[hSer](Me)Y[Nle][NMeF][NHCH2CH2SCH2CO]))	2850 nM
CCCC[C@@H]1NC(=O)[C@H](Cc2ccc(NC(=N)N)cc2)NC(=O)[C@H](CCCNC(=N)N)NC(=O)[C@H](Cc2cccc3ccccc23)NC(=O)CSC[C@](C)(C(=O)O)NC(=O)[C@H](Cc2ccccc2)N(C)C(=O)[C@H](CCCC)NC(=O)[C@H](Cc2ccc(O)cc2)NC1=O [compound 143, cyclo(INal-R-Phe4Gn-Nlc-Y-Nle-NMeF-daMeC-ClAc)] ({CH2CO}-[1Nal]R[Phe(4-guanidino)][Nle]Y[Nle][NMeF][d(αMeC)]-OH; thioether N-8)	575 nM
CCCC[C@@H]1NC(=O)[C@H](Cc2cccnc2)NC(=O)[C@H](CCCN(C)C(=N)NC)N(C)C(=O)[C@H](Cc2ccccc2)OC(=O)CSC[C@@](C)(C(N)=O)NC(=O)[C@H](Cc2cccnc2)N(C)C(=O)[C@H](CCCC)NC(=O)[C@H](Cc2ccccc2F)NC1=O [compound 396, cyclo(FLac-NMeArg1MeMe-3Pal-Nle-Phe2F-Nle-NMe3Pal-aMeCl-ClAc)] ({CH2CO}-[PhLac][X22][3Pal][Nle][Phe(2-F)][Nle][NMe3Pal][αMeC]-NH2; thioether N-8)	1.8 nM
CCCC[C@@H]1NC(=O)[C@H](Cc2cccnc2)NC(=O)[C@H](CC#N)NC(=O)[C@H](Cc2ccccc2)OC(=O)C23CC(CNC(=O)[C@H](Cc4cccnc4)N(C)C(=O)[C@H](CCCC)NC(=O)[C@H](Cc4ccccc4F)NC1=O)(C2)C3 [compound 252, cyclo(FLac-AlaCN-3Pal-Nle-Phe2F-Nle-NMe3Pal-amBCP)] (cyclo([3Pal][Nle][Phe(2-F)][Nle][NMe3Pal][X1][PhLac][Ala(CN)]))	3750 nM
CCCC[C@@H]1NC(=O)[C@H](Cc2cccnc2)NC(=O)[C@H](C)N(C)C(=O)[C@H](Cc2ccccc2)OC(=O)C23CC(CNC(=O)[C@H](Cc4ccc(C)nc4)N(C)C(=O)[C@H](CCCC)NC(=O)[C@H](Cc4ccccc4F)NC1=O)(C2)C3 [compound 402, cyclo(FLac-NMeA-3Pal-Nle-Phe2F-Nle-NMe3Pal4Me-amBCP)] (cyclo([3Pal][Nle][Phe(2-F)][Nle][NMe3Pal(6-Me)][X1][PhLac][NMeA]))	18 nM
CCCCC[C@@H]1NC(=O)[C@H](Cc2ccc(OC)cc2)NC(=O)[C@H](CC2CCC2)NC(=O)[C@H](Cc2ccc(NC(=N)N)cc2)NC(=O)[C@H](CCCN(C)C(=N)NC)N(C)C(=O)[C@H](Cc2ccccc2)NC(=O)CSC[C@@](C)(C(N)=O)NC(=O)[C@H](Cc2ccccc2)N(C)C1=O [compound 381, cyclo(F-NMeArg1MeMe-Phe4Gn-cBuA-TyrOMe-Ahp-NMeF-aMeCl-ClAc)] ({CH2CO}-F[X22][Phe(4-guanidino)][Cba]Y(Me)[Ahp(2)][NMeF][αMeC]-NH2; thioether N-8)	1.69 nM
CCCCC[C@@H]1NC(=O)[C@H](Cc2ccc(OC)cc2)NC(=O)[C@H](CC2CCC2)NC(=O)[C@H](Cc2ccc(NC(=N)N)cc2)NC(=O)CN(CCCNC(C)=O)C(=O)[C@H](Cc2ccccc2)NC(=O)CSC[C@@](C)(C(N)=O)NC(=O)[C@H](Cc2ccccc2)N(C)C1=O [compound 387, cyclo(F-AcApG-Phe4Gn-cBuA-TyrOMe-Ahp-NMcF-aMeCl-ClAc)] ({CH2CO}-F[X12][Phe(4-guanidino)][Cba]Y(Me)[Ahp(2)][NMeF][αMeC]-NH2; thioether N-8)	164 nM
CCCC[C@@H]1NC(=O)[C@H](Cc2cnc(C#N)nc2)NC(=O)[C@H](C)N(C)C(=O)[C@H](Cc2ccccc2)OC(=O)C23CC(CNC(=O)[C@H](Cc4ccccc4)N(C)C(=O)[C@H](CCCC)NC(=O)[C@H](Cc4ccccc4F)NC1=O)(C2)C3 (single isomer, unassigned) [compound 314, cyclo(FLac-NMeA-AlaPyrim4CN-Nle-Phe2F-Nle-NMeF-amBCP)]	24.8 nM
C[C@H]1C(=O)N[C@@H](Cc2cccnc2)C(=O)N[C@@H](CC2CC2)C(=O)N[C@@H](Cc2ccccc2F)C(=O)N[C@@H](CCC(C)(C)F)C(=O)N(C)[C@@H](Cc2cncc(F)c2)C(=O)NCC23CC(C2)(C3)C(=O)O[C@@H](Cc2ccccc2)C(=O)N1C [compound 284, cyclo(FLac-NMeA-3Pal-cPrA-Phe2F-hL3F-NMe3Pal5F-amBCP)] (cyclo([3Pal][Ala(cPr)][Phe(2-F)][X11][NMe3Pal(5-F)][X1][PhLac][NMeA]))	2 nM
CCCC[C@@H]1NC(=O)[C@H](Cc2ccccc2F)NC(=O)[C@H](CC2CCC2)NC(=O)[C@@H](Cc2cccnc2)NC(=O)[C@H](CCCNC(=N)N)NC(=O)[C@H](Cc2ccccc2)NC(=O)C23CC(CNC(=O)[C@H](Cc4cccnc4)N(C)C1=O)(C2)C3 [compound 103, cyclo(F-R-d3Pal-cBuA-Phe2F-Nle-NMe3Pal-amBCP)] (cyclo(FR[d3Pal][Cba][Phe(2-F)][Nle][NMe3Pal][X1]))	3.19 nM
Cc1cccc(C[C@H]2C(=O)NCC34CC(C3)(C4)C(=O)O[C@@H](Cc3ccccc3)C(=O)N(C)[C@@H](C)C(=O)N[C@@H](Cc3cncnc3)C(=O)N[C@@H](CC3CC3)C(=O)N[C@@H](Cc3ccccc3F)C(=O)N[C@@H](CCC(C)(C)F)C(=O)N2C)c1 [compound 274, cyclo(FLac-NMeA-PyrimAla-cPrA-Phe2F-hL3F-NMePhe3Me-amBCP)] (cyclo([Ala(cPr)][Phe(2-F)][X11][NMePhe(3-Me)][X1][PhLac][NMeA][Ala(pyrimidin-5-yl)]))	1 nM
CCCC[C@@H]1NC(=O)[C@H](Cc2cncnc2)NC(=O)[C@H](C)N(C)C(=O)[C@H](Cc2ccccc2)OC(=O)C23CC(CNC(=O)[C@H](Cc4ccccc4)N(C)C(=O)[C@H](CCCCF)NC(=O)[C@H](Cc4ccccc4F)NC1=O)(C2)C3 [compound 131, cyclo(FLac-NMeA-PyrimAla-Nle-Phe2F-NleF-NMeF-amBCP)] (cyclo([NMeA][Ala(pyrimidin-5-yl)][Nle][Phe(2-F)][X17][NMeF][X1][PhLac]))	10.1 nM
C#CC[C@@H]1NC(=O)[C@H](CC2CC2)NC(=O)[C@H](Cc2cncnc2)NC(=O)[C@H](C)N(C)C(=O)[C@H](Cc2ccccc2)OC(=O)C23CC(CNC(=O)[C@H](Cc4ccccc4)N(C)C(=O)[C@H](CCC(C)C)NC1=O)(C2)C3 [compound 286, cyclo(FLac-NMeA-PyrimAla-cPrA-Pra-hL-NMeF-amBCP)] (cyclo([Ala(cPr)][Pra][hLeu][NMeF][X1][PhLac][NMeA][Ala(pyrimidin-5-yl)]))	1990 nM
CCC[C@@H]1NC(=O)[C@H](Cc2ccc(O)cc2)NC(=O)[C@H](CC(C)C)NC(=O)[C@H](Cc2ccc(O)cc2)NC(=O)[C@H](CCCNC(=N)N)NC(=O)[C@H](Cc2ccccc2)NC(=O)CSCCNC(=O)[C@H](Cc2ccccc2)N(C)C1=O [compound 83, cyclo(F-R-Y-L-Y-Nva-NMeF-Cysteamine-ClAc)]	6350 nM
CCCCC[C@@H]1NC(=O)[C@H](Cc2ccc(OC)cc2)NC(=O)[C@H](CC2CCC2)NC(=O)[C@H](Cc2cncnc2)NC(=O)[C@H](CCCNC(=N)N)NC(=O)[C@H](Cc2ccccc2)NC(=O)CSC[C@@](C)(C(N)=O)NC(=O)[C@H](Cc2ccccc2)N(C)C1=O [compound 367, cyclo(F-R-PyrimAla-cBuA-TyrOMe-Ahp-NMeF-aMeCl-ClAc)] ({CH2CO}-FR[Ala(pyrimidin-5-yl)][Cba]Y(Me)[Ahp(2)][NMeF][αMeC]-NH2; thioether N-8)	4.05 nM
CCCC[C@@H]1NC(=O)[C@H](Cc2ccc(NC(=N)N)cc2)NC(=O)[C@H](CCCNC(=N)N)NC(=O)[C@H](Cc2cccc3ccccc23)NC(=O)CSC[C@H](C(=O)O)NC(=O)[C@H](Cc2ccccc2)N(C)C(=O)[C@H](CCCC)NC(=O)[C@H](Cc2ccc(O)cc2)NC1=O [compound 141, cyclo(INal-R-Phe4Gn-Nle-Y-Nle-NMeF-dC-ClAc)] ({CH2CO}-[1Nal]R[Phe(4-guanidino)][Nle]Y[Nle][NMeF][dC]-OH; thioether N-8)	16.8 nM
CCCC[C@@H]1NC(=O)[C@H](Cc2ccc(OC)cc2)NC(=O)[C@H](CC2CCC2)NC(=O)[C@H](Cc2cccnc2)NC(=O)[C@H](CCCNC(=N)N)NC(=O)[C@H](Cc2ccccc2)NC(=O)C2CC3(C2)CN(C3)C(=O)[C@H](Cc2ccccc2)N(C)C1=O [compound 102, cyclo(F-R-3Pal-cBuA-TyrOMe-Nlc-NMeF-spiro44)] (cyclo(FR[3Pal][Cba]Y(Me)[Nle][NMeF][X70]))	7340 nM
